Results as given in EP1094724B1, “USE OF A PHENOL OXIDISING ENZYME IN THE TREATMENT OF TOBACCO” (priority 1998, dated 2000).

Columns and labels:
[1] = target: T1, laccase derived from Trametes villosa, TvL (Trametes villosa, UniProt Q99044); assay: Effect of laccase on tobacco constituents, UV/Vis spectra before and after treatment (Example 1); assay type: biochemical; conditions: 9 mM Na-acetate buffer pH 5.0; 4.8% Ethanol; 0.025 mg/ml of tobacco constituent; 0.016 mg/ml laccase; spectra 190-700 nm every 20 seconds for 5 minutes
T1 construct: purchased Novo Nordisk A/S
T1 sequence (Q99044 22-520): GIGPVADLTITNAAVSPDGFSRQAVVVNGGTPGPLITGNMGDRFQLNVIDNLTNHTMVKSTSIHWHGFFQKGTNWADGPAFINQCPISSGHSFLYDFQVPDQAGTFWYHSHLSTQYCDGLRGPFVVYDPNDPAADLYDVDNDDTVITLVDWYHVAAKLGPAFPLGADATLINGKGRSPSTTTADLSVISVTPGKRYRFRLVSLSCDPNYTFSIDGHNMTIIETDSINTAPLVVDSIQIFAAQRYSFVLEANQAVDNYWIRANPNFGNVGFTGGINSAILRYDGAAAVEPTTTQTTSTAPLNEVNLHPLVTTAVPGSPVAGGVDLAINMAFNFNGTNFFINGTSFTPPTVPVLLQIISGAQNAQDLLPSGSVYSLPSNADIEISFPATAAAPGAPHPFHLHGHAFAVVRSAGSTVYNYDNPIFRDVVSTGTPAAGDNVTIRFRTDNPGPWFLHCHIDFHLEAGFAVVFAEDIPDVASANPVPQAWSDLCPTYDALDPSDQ
Experimental: Tobacco constituents: Nicotine, Chlorogenic acid, Rutin and Scopoletin. Enzyme: Purified laccase derived from Trametes villosa, TvL. Apparatus: HP8452 UV/Vis diode array spectrophotometer, 1 cm quarts cuvette. Buffer: Sodium acetate (Merck)
10 mM acetate buffer was prepared from sodium acetate adjusted to pH 5.0 with sulphuric acid. Stock solution of 0.50 mg/ml in 96% ethanol was prepared of nicotine, chlorogenic acid, rutin, and scopoletin. A stock solution of 0.31 mg enzyme protein/ml of laccase in de-mineralised water was prepared. The HP diode array spectrophotometer was operated as per the manufacturer's instructions. A 1 cm quartz cuvette was used. As a blank was used 950µl buffer mixed with 50µl 96% ethanol. In a 1 cm quart cuvette was mixed 900µl 10 mM acetate buffer and 50µl of the stock solution of the compound in question. A spectrum of the "native" compound was recorded in the range 190-700 nm. 50µl of TvL stock solution was added and carefully mixed, and spectra in the range 190-700 nm were recorded every 20 seconds for 5 minutes.

[2] = target: T2, Trametes villosa laccase (TvL) (Trametes villosa, UniProt Q99044); assay: Laccase TvL treatment of tobacco extract, HPLC analysis of phenolic compounds (peak area); assay type: biochemical; conditions: for % Remaining (peak area) after various treatment times: intensive, submerse aeration; for % Remaining (peak area) after 75 minutes / % Remaining (peak area) after 240 minutes: 1.6 µg/ml TvL, ambient temperature (approximately 20°C), surface aeration
T2 construct: purchased Novo Nordisk A/S
T2 sequence (Q99044 22-520): T1 sequence (Q99044 22-520)
Experimental: The content of phenolic compounds is analysed by HPLC according to the procedure described below: • Liquid chromatographic system: E.g. Shimadzu SCL-6B System Controller, and two LC-6A Liquid Chromatograph (pumps) or Waters model 600 E • Injector: Shimadzu SIL 6B Autoinjector or Waters 715 Ultra Wisp. UV detector: Shimadzu SPD-6A Photodiode Array UV-VIS detector or Waters Model 481 • Software: CLASS LC10 / CLASS-MXA or Maxima 820 • Column: Supelcosil™ LC-18 25 cm x 4.6 mm (Supelco, #5-8298) or µ Bondapack C198 stainless steel column, 30 cm x 4 mm i.d., 10 µm particle size. • Guard column: none or Guard-Pak from Waters packed with the same material. • Temperature: Ambient • Mobile phase flow: 1.3 ml/min • Injection volume: 20µl • Wavelength: 350 nm • Eluent: Binary gradient (linear) mixture of A: KH2PO4 (28.4 g in 2000 ml de-mineralised water) and B: methanol (please see table 1 and figure 1). The eluent is filtered through a 0.45 µm filter and degassed before use.
Prior to HPLC analysis, the samples were filtered through a 0.45 µm filter or smaller, e.g. a sterile Sartorius Minisart 0.45 µm filter (#16555) or a Millipore Millex-GS 0.22 µm (#SBGS 0 25 SB) to remove the haze/precipitate normally formed during enzyme treatment. Normally, no dilution of the extract/sample was made before HPLC analysis.
For qualitative and semi-quantitative measurements, each of the standards was dissolved in 96% ethanol, and then mixed in a ratio and at a concentration which was within the range in the tobacco extract. For semi-quantification of the phenolic compounds in the tobacco extract, and as a measure of development in concentration of the various compounds contained in the extract, decrease in peak area relative to the peak area before addition of enzyme was used. As a measure of overall efficiency of the process, degree of reduction in total peak area of all peaks (not only the major ones) in the HPLC chromatogram with retention time Rt>3 min was used (named: "All peaks").
Unless otherwise indicated, the tobacco was extracted at a laboratory scale with water according to the following procedure: 1000 ml demineralised water is heated to 45°C. 30 g tobacco (approx. 25 g d.m.) is added and the mixture stirred by a magnetic bar and occasionally with a stick. After 15 minutes the tobacco residue is separated from the tobacco extract by vacuum filtration (Whatman glass micro fibre GF/F 11 cm). The filtered extract is then vacuum filtered at least once more or until it is completely clear. Yield was around 900 ml tobacco extract. […] No buffer was thus included in any of the trials. D.m. content of the extract was approximately 2.1%.
Tobacco extract (typically 50-100 ml) was poured into a glass beaker and a magnetic bar was added. No pH adjustments were made, and no buffer was added. The tobacco extract was heated to and controlled at 55°C during the entire enzyme treatment by means of a heating plate and a thermostat. Intensive submerse aeration was applied by blowing atmospheric air into the extract by means of a metal sinter (metal suction filter normally used for HPLC). The enzyme in question (TvL or PpL) was added to the desired concentration. Shortly after addition of laccase, the colour of the tobacco extract turned dark brown to black, and with time the liquor became turbid and a precipitate formed. The liquor was sampled with intervals for HPLC analysis.
Enzyme treatment: Surface aeration was used. TvL enzyme was added to the tobacco extract to a concentration of approximately 1.6 µg/ml. […] HPLC chromatograms of the tobacco extract before, during, and after enzyme treatment as well as chromatograms of the mixture of HPLC standards are shown in figure 6, 7, ,8, and 9.
Enzyme treatment: pH of the extract was adjusted with H2SO4 or NaOH to pH 4, pH 5, pH 6, or pH 7. The extract was kept at ambient temperature (approximately 20°C) during the entire enzyme treatment. Surface aeration was used. […]

SMILES	spectral changes (peak position and peak relative height) [1]	% Remaining (peak area) after various treatment times ([2]; 40 Min, approximately 1.6 µg/ml TvL at 55°C and pH 5.4) [%]	% Remaining (peak area) after various treatment times ([2]; 40 Min, approximately 7.8µg/ml TvL at 55°C and pH 5.4) [%]	% Remaining (peak area) after various treatment times ([2]; 80 Min, approximately 1.6 µg/ml TvL at 55°C and pH 5.4) [%]	% Remaining (peak area) after various treatment times ([2]; 120 Min, approximately 1.6 µg/ml TvL at 55°C and pH 5.4) [%]	% Remaining (peak area) after 75 minutes ([2]; pH 4) [%]	% Remaining (peak area) after 240 minutes ([2]; pH 4) [%]	% Remaining (peak area) after 75 minutes ([2]; pH 5) [%]	% Remaining (peak area) after 240 minutes ([2]; pH 5) [%]	% Remaining (peak area) after 75 minutes ([2]; pH 6) [%]	% Remaining (peak area) after 240 minutes ([2]; pH 6) [%]	% Remaining (peak area) after 75 minutes ([2]; pH 7) [%]	% Remaining (peak area) after 240 minutes ([2]; pH 7) [%]
CN1CCCC1c1cccnc1 (stereo not shown) [Nicotine]	No spectral changes	–	–	–	–	–	–	–	–	–	–	–	–
C[C@@H]1O[C@@H](OC[C@H]2O[C@@H](Oc3c(-c4ccc(O)c(O)c4)oc4cc(O)cc(O)c4c3=O)[C@H](O)[C@@H](O)[C@@H]2O)[C@H](O)[C@H](O)[C@H]1O [R, rutin]	–	20	0	0	0	44	0	29	0	14	0	87	63
